Among the data in ChEMBL document CHEMBL5291721, “A preclinical secondary pharmacology resource illuminates target-adverse drug reaction associations of marketed drugs” (Nat Commun, 2023) are AC50 values, retold here.

Test [1] addresses 5-hydroxytryptamine receptor 2B (Homo sapiens, UniProt P41595). Format: functional, cell-based.
Test [2] addresses Delta-type opioid receptor (Homo sapiens, UniProt P41143).
Test [3] deals with T1, 5-hydroxytryptamine receptor 3A (Homo sapiens, UniProt P46098).
T1 sequence (P46098 whole entry): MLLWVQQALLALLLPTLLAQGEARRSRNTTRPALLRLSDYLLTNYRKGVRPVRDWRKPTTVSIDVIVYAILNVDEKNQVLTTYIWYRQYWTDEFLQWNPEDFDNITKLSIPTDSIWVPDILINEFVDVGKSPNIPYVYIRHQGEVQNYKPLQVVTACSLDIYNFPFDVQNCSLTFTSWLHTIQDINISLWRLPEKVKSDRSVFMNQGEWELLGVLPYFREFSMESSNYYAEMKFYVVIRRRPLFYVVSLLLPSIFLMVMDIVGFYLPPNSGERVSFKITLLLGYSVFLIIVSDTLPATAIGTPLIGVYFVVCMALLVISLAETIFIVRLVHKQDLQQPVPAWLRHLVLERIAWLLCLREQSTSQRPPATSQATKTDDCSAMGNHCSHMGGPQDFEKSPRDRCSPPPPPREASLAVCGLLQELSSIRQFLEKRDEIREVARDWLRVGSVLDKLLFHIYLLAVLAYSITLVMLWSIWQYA
Format: functional.

Test [4] deals with T2, Cholecystokinin receptor type A (Homo sapiens, UniProt P32238).
T2 sequence (P32238 whole entry): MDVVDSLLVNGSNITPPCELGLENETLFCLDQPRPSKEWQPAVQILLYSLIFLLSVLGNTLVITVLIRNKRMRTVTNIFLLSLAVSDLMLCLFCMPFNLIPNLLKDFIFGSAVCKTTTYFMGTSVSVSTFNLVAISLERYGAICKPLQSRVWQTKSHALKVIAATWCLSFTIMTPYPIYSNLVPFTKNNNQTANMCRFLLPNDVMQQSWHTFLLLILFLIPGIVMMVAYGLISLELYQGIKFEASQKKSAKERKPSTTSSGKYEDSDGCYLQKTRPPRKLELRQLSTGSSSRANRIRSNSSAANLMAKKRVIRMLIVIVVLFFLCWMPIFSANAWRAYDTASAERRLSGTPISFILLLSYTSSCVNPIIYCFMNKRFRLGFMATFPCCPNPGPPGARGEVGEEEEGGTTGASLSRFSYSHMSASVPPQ

For test [5], the target named is Voltage-gated inwardly rectifying potassium channel KCNH2 (Homo sapiens, UniProt Q12809). It is filed as functional. Conditions: read-out: AC50.
Chain of Voltage-gated inwardly rectifying potassium channel KCNH2 (Q12809 whole entry): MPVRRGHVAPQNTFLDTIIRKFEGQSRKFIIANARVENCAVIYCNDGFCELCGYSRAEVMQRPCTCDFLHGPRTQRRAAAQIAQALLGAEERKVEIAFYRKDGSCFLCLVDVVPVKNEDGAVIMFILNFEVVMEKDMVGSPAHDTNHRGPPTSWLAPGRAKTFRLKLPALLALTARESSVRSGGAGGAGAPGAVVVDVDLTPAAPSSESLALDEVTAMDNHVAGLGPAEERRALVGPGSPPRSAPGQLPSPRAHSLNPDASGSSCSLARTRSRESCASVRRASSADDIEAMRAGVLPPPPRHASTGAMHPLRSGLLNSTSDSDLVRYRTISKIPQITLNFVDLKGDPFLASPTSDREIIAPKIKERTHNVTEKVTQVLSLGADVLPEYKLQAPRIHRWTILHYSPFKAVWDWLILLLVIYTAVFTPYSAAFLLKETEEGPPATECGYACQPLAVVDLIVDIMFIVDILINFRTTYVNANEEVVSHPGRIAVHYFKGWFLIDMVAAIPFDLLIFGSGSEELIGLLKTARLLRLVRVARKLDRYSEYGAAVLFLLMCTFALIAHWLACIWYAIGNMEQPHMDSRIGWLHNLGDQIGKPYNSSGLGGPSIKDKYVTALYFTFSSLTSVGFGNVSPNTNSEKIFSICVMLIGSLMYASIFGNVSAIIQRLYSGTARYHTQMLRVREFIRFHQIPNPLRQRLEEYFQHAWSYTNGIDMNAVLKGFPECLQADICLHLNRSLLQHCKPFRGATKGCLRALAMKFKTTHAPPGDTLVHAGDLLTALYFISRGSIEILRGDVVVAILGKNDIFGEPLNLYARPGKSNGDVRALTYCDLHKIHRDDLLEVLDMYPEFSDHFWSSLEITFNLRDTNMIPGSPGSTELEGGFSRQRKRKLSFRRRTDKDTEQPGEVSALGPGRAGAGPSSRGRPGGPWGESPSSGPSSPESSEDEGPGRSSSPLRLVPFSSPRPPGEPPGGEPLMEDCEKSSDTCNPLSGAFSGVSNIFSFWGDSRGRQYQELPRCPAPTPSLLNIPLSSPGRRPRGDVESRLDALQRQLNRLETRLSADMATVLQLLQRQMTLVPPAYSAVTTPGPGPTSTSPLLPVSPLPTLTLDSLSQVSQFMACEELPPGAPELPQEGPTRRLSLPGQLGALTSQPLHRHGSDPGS
Test [6] has as its target cGMP-inhibited 3',5'-cyclic phosphodiesterase 3A (Homo sapiens, UniProt Q14432). Format: functional.
The target of test [7] is T3, Amine oxidase [flavin-containing] A (Homo sapiens, UniProt P21397).
T3 sequence (P21397 whole entry): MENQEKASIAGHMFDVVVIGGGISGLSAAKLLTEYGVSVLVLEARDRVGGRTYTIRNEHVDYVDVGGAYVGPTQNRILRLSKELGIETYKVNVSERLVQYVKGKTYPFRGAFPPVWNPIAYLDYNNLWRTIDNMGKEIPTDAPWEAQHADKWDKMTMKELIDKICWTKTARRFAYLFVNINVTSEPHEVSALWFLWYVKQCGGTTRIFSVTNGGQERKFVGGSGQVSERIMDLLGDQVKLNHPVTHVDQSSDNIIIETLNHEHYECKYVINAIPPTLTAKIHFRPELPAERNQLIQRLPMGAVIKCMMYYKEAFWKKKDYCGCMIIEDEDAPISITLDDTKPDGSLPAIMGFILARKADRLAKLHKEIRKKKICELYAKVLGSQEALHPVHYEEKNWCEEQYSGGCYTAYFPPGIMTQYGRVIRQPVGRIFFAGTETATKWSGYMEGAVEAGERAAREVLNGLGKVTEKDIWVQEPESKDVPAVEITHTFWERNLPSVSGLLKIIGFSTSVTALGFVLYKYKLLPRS
Format: functional.

Test [8] addresses T4, Alpha-2A adrenergic receptor (Homo sapiens, UniProt P08913).
T4 sequence (P08913 whole entry): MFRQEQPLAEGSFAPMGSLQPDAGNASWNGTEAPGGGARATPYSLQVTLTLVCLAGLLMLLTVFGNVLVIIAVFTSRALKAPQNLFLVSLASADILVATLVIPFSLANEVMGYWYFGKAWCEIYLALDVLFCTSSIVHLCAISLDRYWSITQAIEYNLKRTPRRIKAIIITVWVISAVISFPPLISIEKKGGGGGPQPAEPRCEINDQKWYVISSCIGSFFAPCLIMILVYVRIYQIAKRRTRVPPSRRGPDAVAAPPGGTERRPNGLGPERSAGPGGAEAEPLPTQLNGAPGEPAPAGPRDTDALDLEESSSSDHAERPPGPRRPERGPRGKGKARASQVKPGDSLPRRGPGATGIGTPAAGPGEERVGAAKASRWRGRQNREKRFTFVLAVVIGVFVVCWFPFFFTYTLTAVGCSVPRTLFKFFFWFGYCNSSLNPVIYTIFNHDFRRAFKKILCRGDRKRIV
Format: functional, cell-based.

The target of test [9] is Gamma-aminobutyric acid receptor subunit alpha-1 (Rattus norvegicus, UniProt P62813). It is filed as functional.
Chain of Gamma-aminobutyric acid receptor subunit alpha-1 (P62813 whole entry): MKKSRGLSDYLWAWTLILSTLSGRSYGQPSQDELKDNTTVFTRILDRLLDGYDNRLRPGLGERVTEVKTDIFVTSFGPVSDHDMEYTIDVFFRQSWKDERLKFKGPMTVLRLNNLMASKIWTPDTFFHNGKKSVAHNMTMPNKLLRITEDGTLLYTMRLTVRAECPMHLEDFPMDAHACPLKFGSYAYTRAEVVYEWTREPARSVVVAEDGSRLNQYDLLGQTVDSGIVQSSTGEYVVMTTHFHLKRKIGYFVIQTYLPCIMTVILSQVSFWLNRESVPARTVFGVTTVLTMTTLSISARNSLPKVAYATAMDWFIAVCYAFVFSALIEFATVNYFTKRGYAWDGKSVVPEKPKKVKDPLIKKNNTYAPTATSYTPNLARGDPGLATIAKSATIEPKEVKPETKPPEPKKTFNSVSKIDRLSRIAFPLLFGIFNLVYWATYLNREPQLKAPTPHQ
Test [10] has as its target T4, Alpha-2A adrenergic receptor. It is filed as functional, cell-based. The source holds these as a separate data set.
For test [11], the target named is T5, Prostaglandin G/H synthase 1 (Rattus norvegicus, UniProt Q63921).
T5 sequence (Q63921 whole entry): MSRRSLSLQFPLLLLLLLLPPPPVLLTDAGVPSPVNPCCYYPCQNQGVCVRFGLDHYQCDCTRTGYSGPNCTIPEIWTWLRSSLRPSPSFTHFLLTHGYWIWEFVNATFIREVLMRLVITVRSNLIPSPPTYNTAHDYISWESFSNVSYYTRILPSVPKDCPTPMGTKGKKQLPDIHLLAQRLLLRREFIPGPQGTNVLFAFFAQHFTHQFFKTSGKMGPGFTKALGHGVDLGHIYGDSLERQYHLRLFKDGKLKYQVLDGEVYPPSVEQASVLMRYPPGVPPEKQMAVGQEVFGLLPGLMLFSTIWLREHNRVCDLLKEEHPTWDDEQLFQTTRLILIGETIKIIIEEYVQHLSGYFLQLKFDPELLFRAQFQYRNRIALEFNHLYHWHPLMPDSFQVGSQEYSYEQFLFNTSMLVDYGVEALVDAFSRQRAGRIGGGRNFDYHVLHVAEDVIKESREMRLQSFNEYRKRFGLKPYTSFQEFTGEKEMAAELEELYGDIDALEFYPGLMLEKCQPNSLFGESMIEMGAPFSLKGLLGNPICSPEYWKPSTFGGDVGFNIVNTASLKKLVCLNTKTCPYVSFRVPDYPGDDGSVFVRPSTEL
It is filed as functional.

The target in a further test is Adenosine receptor A2a (Homo sapiens, UniProt P29274).
Chain of Adenosine receptor A2a (P29274 whole entry): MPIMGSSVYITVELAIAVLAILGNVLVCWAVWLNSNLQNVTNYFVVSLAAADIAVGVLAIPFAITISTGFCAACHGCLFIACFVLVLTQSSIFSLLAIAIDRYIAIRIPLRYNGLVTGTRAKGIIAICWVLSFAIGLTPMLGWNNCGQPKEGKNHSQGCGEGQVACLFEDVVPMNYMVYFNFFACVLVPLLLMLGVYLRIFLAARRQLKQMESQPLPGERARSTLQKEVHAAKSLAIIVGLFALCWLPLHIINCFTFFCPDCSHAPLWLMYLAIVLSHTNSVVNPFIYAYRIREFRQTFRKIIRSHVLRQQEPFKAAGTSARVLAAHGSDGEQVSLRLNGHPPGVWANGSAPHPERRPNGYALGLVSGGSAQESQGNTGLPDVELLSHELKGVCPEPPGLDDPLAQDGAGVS
Also: assay procedure not described here.

Chain of Delta-type opioid receptor (P41143 whole entry): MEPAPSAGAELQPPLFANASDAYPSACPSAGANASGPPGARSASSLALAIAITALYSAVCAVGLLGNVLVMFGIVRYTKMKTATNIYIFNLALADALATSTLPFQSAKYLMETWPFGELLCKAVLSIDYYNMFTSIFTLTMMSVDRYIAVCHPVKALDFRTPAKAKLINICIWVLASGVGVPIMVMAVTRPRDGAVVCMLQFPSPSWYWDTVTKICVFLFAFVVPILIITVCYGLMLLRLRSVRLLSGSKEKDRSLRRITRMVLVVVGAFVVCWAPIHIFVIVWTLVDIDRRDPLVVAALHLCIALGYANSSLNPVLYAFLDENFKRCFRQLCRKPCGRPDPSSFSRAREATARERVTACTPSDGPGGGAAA
Chain of cGMP-inhibited 3',5'-cyclic phosphodiesterase 3A (Q14432 whole entry): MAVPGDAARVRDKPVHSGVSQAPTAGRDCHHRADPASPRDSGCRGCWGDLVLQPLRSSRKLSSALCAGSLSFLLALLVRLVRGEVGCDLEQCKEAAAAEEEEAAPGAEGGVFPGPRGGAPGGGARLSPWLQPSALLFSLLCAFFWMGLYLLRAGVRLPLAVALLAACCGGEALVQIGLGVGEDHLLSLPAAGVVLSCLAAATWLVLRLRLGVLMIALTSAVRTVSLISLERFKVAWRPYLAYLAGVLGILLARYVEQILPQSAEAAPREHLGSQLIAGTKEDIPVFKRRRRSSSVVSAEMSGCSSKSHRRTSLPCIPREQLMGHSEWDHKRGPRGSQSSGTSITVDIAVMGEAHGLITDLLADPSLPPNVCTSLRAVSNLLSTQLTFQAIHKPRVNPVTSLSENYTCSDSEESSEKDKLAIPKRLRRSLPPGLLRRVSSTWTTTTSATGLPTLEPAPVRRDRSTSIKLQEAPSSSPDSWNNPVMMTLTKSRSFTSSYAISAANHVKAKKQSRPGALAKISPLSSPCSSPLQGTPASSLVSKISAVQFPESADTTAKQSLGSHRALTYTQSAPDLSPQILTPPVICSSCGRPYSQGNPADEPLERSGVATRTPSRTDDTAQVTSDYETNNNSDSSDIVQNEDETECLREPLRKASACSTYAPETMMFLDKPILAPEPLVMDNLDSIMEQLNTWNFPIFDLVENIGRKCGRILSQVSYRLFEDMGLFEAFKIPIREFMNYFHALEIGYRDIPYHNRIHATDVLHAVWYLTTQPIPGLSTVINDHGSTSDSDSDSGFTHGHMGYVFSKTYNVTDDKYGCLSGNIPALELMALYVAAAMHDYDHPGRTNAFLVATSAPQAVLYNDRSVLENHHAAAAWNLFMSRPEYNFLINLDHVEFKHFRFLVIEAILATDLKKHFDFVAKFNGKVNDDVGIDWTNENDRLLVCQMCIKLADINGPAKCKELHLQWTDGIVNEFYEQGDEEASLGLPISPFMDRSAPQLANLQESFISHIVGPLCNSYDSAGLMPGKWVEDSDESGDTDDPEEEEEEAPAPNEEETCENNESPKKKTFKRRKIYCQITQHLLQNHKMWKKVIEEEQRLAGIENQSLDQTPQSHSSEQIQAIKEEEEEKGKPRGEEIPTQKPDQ
Chain of 5-hydroxytryptamine receptor 2B (P41595 whole entry): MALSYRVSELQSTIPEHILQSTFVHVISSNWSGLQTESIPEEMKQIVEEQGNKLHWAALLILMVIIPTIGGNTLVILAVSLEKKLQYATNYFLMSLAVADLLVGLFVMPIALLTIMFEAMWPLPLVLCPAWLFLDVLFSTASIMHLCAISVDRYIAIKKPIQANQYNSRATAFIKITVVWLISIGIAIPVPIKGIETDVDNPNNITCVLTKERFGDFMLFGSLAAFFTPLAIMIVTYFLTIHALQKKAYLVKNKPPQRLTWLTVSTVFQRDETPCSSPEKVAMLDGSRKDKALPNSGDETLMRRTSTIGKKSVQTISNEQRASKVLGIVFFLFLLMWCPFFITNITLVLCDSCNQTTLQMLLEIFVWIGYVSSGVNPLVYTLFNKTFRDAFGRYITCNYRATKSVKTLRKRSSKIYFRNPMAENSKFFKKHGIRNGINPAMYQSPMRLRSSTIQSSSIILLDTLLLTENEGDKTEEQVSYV

For `C=CC1=C(C(=O)O)N2C(=O)[C@@H](NC(=O)/C(=N\O)c3csc(N)n3)[C@H]2SC1`, the AC50 in test [1] is more than 10 µM; in [2], more than 30 µM; in [3], more than 30 µM; in [4], more than 30 µM; in test [5], more than 30 µM; in test [6], more than 30 µM. Further, the AC50 was more than 10 µM in [7]; more than 10 µM in [8]; more than 10 µM in test [9]; more than 10 µM in test [10]; more than 30 µM in test [11]; more than 30 µM on Adenosine receptor A2a.
With `CN(C)CCOC(c1ccc(Cl)cc1)c1ccccn1` (stereo unspecified) [CARBINOXAMINE], the AC50 in [1] was more than 30 µM; in test [2], more than 30 µM; in test [3] it was more than 30 µM; in test [4], more than 30 µM; in test [5], 1.3 µM; in test [6], more than 30 µM. Also, the AC50 (in test [7]; in test [8]; in [9]; in [10]; in test [11]; at Adenosine receptor A2a) was more than 30 µM throughout.
Consider `COC(=O)CCc1ccc(OCC(O)CNC(C)C)cc1` (stereo unspecified) [ESMOLOL], for which the half-maximal activity concentration (AC50) in test [1], in [2], in test [3], in test [4], in [5] and in [6] was more than 30 µM each time. The AC50 (in test [7]; in [8]; in test [9]; in [10]; in test [11]; on Adenosine receptor A2a) was more than 30 µM in each case.
`CC(C)C[C@H](NC(=O)[C@H](Cc1ccccc1)NC(=O)c1cnccn1)B(O)O` [BORTEZOMIB]: the AC50 in test [1], in [2], in test [3], in test [4], in test [5] and in test [6] was more than 30 µM in each case. The AC50 (in test [7]; in [8]; in test [9]; in test [10]; in test [11]; at Adenosine receptor A2a) was more than 30 µM each time.
Take `CC(C)(CO)c1cc2cc(NC(=O)C3(c4ccc5c(c4)OC(F)(F)O5)CC3)c(F)cc2n1C[C@@H](O)CO` [TEZACAFTOR]: the AC50 is more than 10 µM in test [1]; more than 30 µM in test [2]; more than 30 µM in test [3]; more than 30 µM in test [4]; more than 30 µM in [5]; more than 30 µM in test [6]. Besides, the AC50 (in [7]; in test [8]; in test [9]; in test [10]; in test [11]; at Adenosine receptor A2a) was more than 30 µM in each case.
In the case of `CCOCC(O)COc1ccc(NC(=O)CC[S+](C)C)cc1` (stereo unspecified), the AC50 in test [1], in test [2], in test [3], in [4], in test [5] and in [6] was more than 30 µM in each case. Moreover, the half-maximal activity concentration (AC50) (in test [7]; in test [8]; in test [9]; in [10]; in test [11]; on Adenosine receptor A2a) was more than 30 µM throughout.
As for `OCCOCCN1CCN(C(c2ccccc2)c2ccc(Cl)cc2)CC1` (stereo unspecified) [HYDROXYZINE], the half-maximal activity concentration (AC50) in test [1] was 2.2 µM; in [2], more than 30 µM; in [3] it was more than 30 µM; in [4] it was more than 30 µM; in test [6] it was more than 30 µM; in test [7] it was more than 10 µM. Further, the AC50 was more than 10 µM in test [8]; more than 10 µM in test [9]; more than 10 µM in test [10]; more than 30 µM in test [11]; more than 30 µM on Adenosine receptor A2a.
For `C[C@H](CS)C(=O)N1CCC[C@H]1C(=O)O` [CAPTOPRIL], the concentration at half-maximal activity (AC50) is more than 10 µM in test [1]; more than 30 µM in test [2]; more than 30 µM in test [3]; more than 30 µM in test [4]; more than 30 µM in test [6]; more than 10 µM in test [7]. Besides, the half-maximal activity concentration (AC50) in test [8] was more than 10 µM; in test [9], more than 10 µM; in test [10], more than 10 µM; in test [11] it was more than 30 µM; on Adenosine receptor A2a, more than 30 µM.
Take `CCC[C@@]1(CCc2ccccc2)CC(O)=C([C@H](CC)c2cccc(NS(=O)(=O)c3ccc(C(F)(F)F)cn3)c2)C(=O)O1`: the concentration at half-maximal activity (AC50) in test [1] was 7.5 µM; in test [2], 16 µM; in [3], more than 30 µM; in test [4], 27 µM; in test [6] it was more than 30 µM; in [7], more than 30 µM. The half-maximal activity concentration (AC50) in [8] was more than 30 µM; in [9] it was more than 30 µM; in test [10] it was 8.6 µM; in test [11], 5.8 µM; on Adenosine receptor A2a, more than 30 µM.
With `Nc1nnc(-c2cccc(Cl)c2Cl)c(N)n1` [LAMOTRIGINE], the half-maximal activity concentration (AC50) is more than 10 µM in test [1]; more than 30 µM in [2]; more than 30 µM in [3]; more than 30 µM in [4]; 2.1 µM in test [6]; 16 µM in test [7]. The AC50 in test [8] was more than 10 µM; in [9], more than 10 µM; in test [10] it was more than 10 µM; in test [11] it was more than 30 µM; on Adenosine receptor A2a it was more than 30 µM.
